# Numbers after ± are expanded uncertainties.
# Experiments:
# [1] = refractive index (Na D-line) (dimensionless); xn = mol fraction of the nth substance listed; details: 101 kPa, Liquid, Standard Abbe refractometry
# [2] = refractive index (Na D-line) (dimensionless); details: 101.33 kPa, Liquid, Standard Abbe refractometry
Compound,"refractive index ([1]; 298.15 K, x1 = 0.01)","refractive index ([1]; 298.15 K, x1 = 0.02)","refractive index ([1]; 298.15 K, x1 = 0.03)","refractive index ([1]; 298.15 K, x1 = 0.04)","refractive index ([1]; 298.15 K, x1 = 0.05)","refractive index ([1]; 298.15 K, x1 = 0.06)","refractive index ([1]; 298.15 K, x1 = 1)","refractive index ([1]; 303.15 K, x1 = 0.01)","refractive index ([1]; 303.15 K, x1 = 0.02)","refractive index ([1]; 303.15 K, x1 = 0.03)","refractive index ([1]; 303.15 K, x1 = 0.04)","refractive index ([1]; 303.15 K, x1 = 0.05)","refractive index ([1]; 303.15 K, x1 = 0.06)","refractive index ([1]; 303.15 K, x1 = 1)",refractive index ([2]; 298.15 K),refractive index ([2]; 303.15 K)
C1CCOC1 [tetrahydrofuran] + O,1.3371 ± 0.0005,1.3409 ± 0.0005,1.3448 ± 0.0005,1.348 ± 0.0005,1.351 ± 0.0005,1.354 ± 0.0005,1.4061 ± 0.0006,1.3366 ± 0.0005,1.3401 ± 0.0005,1.3431 ± 0.0005,1.347 ± 0.0005,1.3496 ± 0.0005,1.3521 ± 0.0005,1.4041 ± 0.0006,–,–
O [water],–,–,–,–,–,–,–,–,–,–,–,–,–,–,1.3331 ± 0.0005,1.3326 ± 0.0005

# — the NIST ThermoML archive (doi:10.1016/j.fluid.2013.11.002)
